In ChEMBL document CHEMBL3259748, “Synthesis, characterization, and PK/PD studies of a series of spirocyclic pyranochromene BACE1 inhibitors” (Bioorg Med Chem Lett, 2014) one finds CLhep predicted and Papp data, which are given here for seven compounds.

The Papp is the rate of passage across a membrane or cell layer, normalised by area and donor concentration.

Molecules are shown by their SMILES.

Series [1] in a line: Clearance in human liver microsomes at 1 uM after 20 mins in presence of NADPH. The format is ADME. For orientation: Microsomes from liver hold many membrane-bound enzymes, among them those of drug oxidation.
A further series deals with MDR1 (human). The series is described as follows: Apparent permeability of the compound across pig LLC-PK1 cells expressing human MDR1. The format is ADME, cell-based, Sus scrofa.

Take `NC1=N[C@@]2(CO1)c1cc(-c3cncc(Cl)c3)ccc1O[C@@H]1COCC[C@H]12`: the CLhep predicted at 1 µM in series [1] is 13 mL/min/kg. Besides, in the series with MDR1 (human), the Papp turned out to be 14 ×10⁻⁶ cm/s.
For `NC1=N[C@@]2(CO1)c1cc(-c3cccnc3F)ccc1O[C@@H]1COCC[C@H]12`, the CLhep predicted at 1 µM in series [1] is 6 mL/min/kg. The Papp in the series with MDR1 (human) turned out to be 10 ×10⁻⁶ cm/s.
Taken in the same sequence, the figures for `NC1=N[C@@]2(CO1)c1cc(-c3cncc(F)c3)ccc1O[C@@H]1COCC[C@H]12` were 9 mL/min/kg and 15 ×10⁻⁶ cm/s.
Consider `N#Cc1cccc(-c2ccc3c(c2)[C@@]2(COC(N)=N2)[C@@H]2CCOC[C@H]2O3)c1`, for which the CLhep predicted at 1 µM in series [1] was 8 mL/min/kg. Further, in the series on MDR1 (human), the Papp was 11 ×10⁻⁶ cm/s.
`NC1=N[C@@]2(CO1)c1cc(-c3cc(F)cc(Cl)c3)ccc1O[C@@H]1COCC[C@H]12`: in series [1], the CLhep predicted at 1 µM is 10 mL/min/kg. Further, in the series with MDR1 (human), the Papp stood at 11 ×10⁻⁶ cm/s.
In the case of `NC1=N[C@@]2(CO1)c1cc(-c3cncc(Cl)c3)ccc1O[C@H]1COCC[C@@H]12`, the CLhep predicted at 1 µM in series [1] is 15 mL/min/kg. The Papp in the series with MDR1 (human) was found to be 4.7 ×10⁻⁶ cm/s.
Turning to `C[C@]12COCC[C@@H]1[C@]1(COC(N)=N1)c1cc(-c3cncc(Cl)c3)ccc1O2` (racemic), in series [1], the CLhep predicted at 1 µM was 15 mL/min/kg. Also, in the series on MDR1 (human), the apparent permeability (Papp) is 10 ×10⁻⁶ cm/s.
